How the values were obtained:
Assay type in all cases: cell-based
[1] = target: T1, SALL4 (Homo sapiens, UniProt Q96SW2+Q9UJQ4); assay: Recruitment Assay (MAPPIT-like): SALL4 recruitment, pSEL-SALL4+pMG1-CRBN; settings: recruitment of SALL4, protocol of Example 2; read-out: EC50_SALL4
T1 construct: Full size proteins are fused for each of the target proteins tested; expressed in transfected cells; host or cells: HEK293T
Method: (§1) In this experimental set-up, cells are transfected with a construct encoding a CRBN-fusion protein and another one encoding a substrate-fusion protein. Test compound activity is assessed with increasing concentrations of test compounds (dose-response studies) to monitor the ability to promote CRBN-ligand-induced protein interaction.
(§2) Full size proteins are fused for each of the target proteins tested, except in the case of IKZF1 where isoform 7 is used, and BRD4, where isoform 3 is applied. For the study, the following construct combinations are used: IKZF1 recruitment: pSEL-CRBN+pMG1-IKZF1(isoform 7); ASS1 recruitment: pSEL-CRBN+pMG1-ASS1; SALL4 recruitment: pSEL-SALL4+pMG1-CRBN; DHFR recruitment: pCLG-DHFR+pMG1-CRBN; ESR1 recruitment: pSEL-CRBN+pMG1-ESR1; BRD4 recruitment: pSEL-CRBN+pMG1-BRD4(isoform 3). Cells are treated with erythropoietin (Epo; where pSEL-type receptor fusions constructs are used) or leptin (in the case pCLG-type receptor fusion constructs are applied) without or with the indicated dose of test compound at 24 hours after transfection. Luciferase activity is measured 24 hours after test compound treatment using the Luciferase Assay System kit (PROMEGA, Madison, Wis.) with an Ensight plate reader (PERKIN ELMER LIFE SCIENCES, Waltham, Mass.). Data points depict fold induction of the average luciferase activity of triplicate samples from Epo or leptin+test compound treated cells versus Epo or leptin only treated cells. Error bars represent standard deviations. Curves are fit using 4-parameter nonlinear regression in […] PRISM software.

[2] = target: T2, CRBN (Homo sapiens, UniProt Q96SW2); assay: Competition Assay: MAPPIT-like, competition with trimethoprim-lenalidomide hybrid ligand for binding to CRBN in HEK293T cells; settings: protocol and reagents of Example 1; read-out: IC50 Competition
T2 construct: expressed in transfected cells; host or cells: HEK293T

[3] = target: T3, ASS1 (Homo sapiens, UniProt P00966+Q96SW2); assay: Recruitment Assay (MAPPIT-like): ASS1 recruitment, pSEL-CRBN+pMG1-ASS1; settings: recruitment of ASS1, protocol of Example 2
T3 construct: Full size proteins are fused for each of the target proteins tested; expressed in transfected cells; host or cells: HEK293T
Method: as §1, §2

| SMILES | EC50 [1] [µM] | IC50 [2] [µM] | EC50_ASS1 (M) [3] | EC50 ([3]; read-out: EC50_ASS1) [µM] |
| --- | --- | --- | --- | --- |
| CC(C)OC1c2ccccc2C(=O)N1C1CCC(=O)NC1=O (centres unmarked) [3-(1-isopropoxy-3-oxo-isoindolin-2-yl)piperidine-2,6-dione] | 2.7 | 22.9 | – | – |
| Cc1nc2ccc(C#N)c(N)c2c(=O)n1C1CCC(=O)NC1=O (centres unmarked) [Compound C10001, 5-amino-3-(2,6-dioxo-3-piperidyl)-2-methyl-4-oxo-quinazoline-6-carbonitrile] | 1.25 | – | >> | – |
| O=C1CCC(N2C(=O)c3ccccc3C2NCc2ccccc2)C(=O)N1 (centres unmarked) [Compound C10239, 3-[1-(benzylamino)-3-oxo-isoindolin-2-yl]piperidine-2,6-dione] | 1.16 | – | – | – |
| CN(C)C1c2ccccc2C(=O)N1C1CCC(=O)NC1=O (centres unmarked) [Compound C10981, 3-[1-(dimethylamino)-3-oxo-isoindolin-2-yl]piperidine-2,6-dione] | 1.46 | 7.81 | >> | – |
| O=C1CCC(N2Cc3ccc(NCC(=O)NC4CCOCC4)cc3C2=O)C(=O)N1 (centres unmarked) [Compound C12693, 2-[[2-(2,6-dioxo-3-piperidyl)-3-oxo-isoindolin-5-yl]amino]-N-tetrahydropyran-4-yl-acetamide] | 2.62 | 8.33 | – | – |
| O=C1CCC(N2Cc3ccc(NCC(=O)NC4CCOC4)cc3C2=O)C(=O)N1 (centres unmarked) [Compound C12694, 2-[[2-(2,6-dioxo-3-piperidyl)-3-oxo-isoindolin-5-yl]amino]-N-tetrahydrofuran-3-yl-acetamide] | 3.43 | – | – | – |
| Cc1ccc2nnn(C3CCC(=O)NC3=O)c(=O)c2c1 (centres unmarked) [Compound C16463, 3-(6-methyl-4-oxo-1,2,3-benzotriazin-3-yl)piperidine-2,6-dione] | 0.772 | 2.67 | – | – |
| Cc1ccc2c(=O)n(C3CCC(=O)NC3=O)nnc2c1 (centres unmarked) [Compound C17800, 3-(7-methyl-4-oxo-1,2,3-benzotriazin-3-yl)piperidine-2,6-dione] | 0.904 | 21.9 | – | – |
| O=C1CCC(n2nnc3ccccc3c2=O)C(=O)N1 (centres unmarked) [Compound C21223, 3-(4-oxo-1,2,3-benzotriazin-3-yl)piperidine-2,6-dione] | 0.517 | 2.29 | >> | – |
| COCC(=O)Nc1cccc2c1CN(C1CCC(=O)NC1=O)C2=O (centres unmarked) [Compound C22564, N-[2-(2,6-dioxo-3-piperidyl)-1-oxo-isoindolin-4-yl]-2-methoxy-acetamide] | 0.873 | 1.67 | >> | – |
| CN(C)CC(=O)Nc1cccc2c1CN(C1CCC(=O)NC1=O)C2=O (centres unmarked) [Compound C22586, 2-(dimethylamino)-N-[2-(2,6-dioxo-3-piperidyl)-1-oxo-isoindolin-4-yl]acetamide] | 1.14 | 1.3 | – | – |
| CCOC(=O)Nc1cccc2c1CN(C1CCC(=O)NC1=O)C2=O (centres unmarked) [Compound C22622, ethyl N-[2-(2,6-dioxo-3-piperidyl)-1-oxo-isoindolin-4-yl]carbamate] | 0.121 | 0.225 | >> | – |
| Cc1ccc2c(c1)C(=O)N(C1CCC(=O)NC1=O)C2 (centres unmarked) [Compound C28620, 3-(6-methyl-1-oxo-isoindolin-2-yl)piperidine-2,6-dione] | 0.27 | 0.178 | – | – |
| O=C1CCC(N2Cc3ccc(O)cc3C2=O)C(=O)N1 (centres unmarked) [Compound C28928, 3-(6-hydroxy-1-oxo-isoindolin-2-yl)piperidine-2,6-dione] | – | – | >> | – |
| CC(=O)NC1c2ccccc2C(=O)N1C1CCC(=O)NC1=O (centres unmarked) [Compound C33779, N-[2-(2,6-dioxo-3-piperidyl)-3-oxo-isoindolin-1-yl]acetamide] | 3.03 | 49.4 | – | – |
| CC(=O)NCCNc1ccc2c(c1)CN(C1CCC(=O)NC1=O)C2=O (centres unmarked) [Compound C35745, N-[2-[[2-(2,6-dioxo-3-piperidyl)-1-oxo-isoindolin-5-yl]amino]ethyl]acetamide] | 2.63 | 11.2 | – | – |
| O=C(O)CNc1cccc2c1C(=O)N(C1CCC(=O)NC1=O)C2 (centres unmarked) [Compound C47998, 2-[[2-(2,6-dioxo-3-piperidyl)-3-oxo-isoindolin-4-yl]amino]acetic acid] | 2.17 | 6.59 | – | – |
| N#Cc1ccc2c(c1)CN(C1CCC(=O)NC1=O)C2=O (centres unmarked) [Compound C48005, 2-(2,6-dioxo-3-piperidyl)-1-oxo-isoindoline-5-carbonitrile] | 0.595 | 1.73 | – | – |
| O=C1CCC(N2Cc3cc(-c4ccccc4)ccc3C2=O)C(=O)N1 (centres unmarked) [Compound C48016, 3-(1-oxo-5-phenyl-isoindolin-2-yl)piperidine-2,6-dione] | 0.122 | 0.173 | – | – |
| O=C1CCC(N2Cc3ccc(-c4ccccc4)cc3C2=O)C(=O)N1 (centres unmarked) [Compound C48018, 3-(1-oxo-6-phenyl-isoindolin-2-yl)piperidine-2,6-dione] | 0.395 | 0.228 | – | – |
| Cc1ccc(NC(=O)NCc2cc(C)c3c(c2)CN(C2CCC(=O)NC2=O)C3=O)cc1Cl (centres unmarked) [Compound C58181, 1-(3-chloro-4-methyl-phenyl)-3-[[2-(2,6-dioxo-3-piperidyl)-7-methyl-1-oxo-isoindolin-5-yl]methyl]urea] | – | 0.0291 | >> | – |
| O=C1CCC(N2C(=O)C3=C(C2=O)c2ccccc2CC3)C(=O)N1 (centres unmarked) [Compound C64340, 2-(2,6-dioxo-3-piperidyl)-4,5-dihydrobenzo[e]isoindole-1,3-dione] | 1.49 | 2500 | – | – |
| O=C1CCC(N2Cc3cc(Nc4ncccn4)ccc3C2=O)C(=O)N1 (centres unmarked) [Compound C80369, 3-[1-oxo-5-(pyrimidin-2-ylamino)isoindolin-2-yl]piperidine-2,6-dione] | – | 0.0415 | – | 1.29 |
| O=C1CCC(N2Cc3cc(Nc4ncnc5ccccc45)ccc3C2=O)C(=O)N1 (centres unmarked) [Compound C80373, 3-[1-oxo-5-(quinazolin-4-ylamino)isoindolin-2-yl]piperidine-2,6-dione] | – | 0.892 | >> | – |
| O=C1CCC(N2Cc3cc(Nc4ncc5[nH]cnc5n4)ccc3C2=O)C(=O)N1 (centres unmarked) [Compound C80376, 3-[1-oxo-5-(7H-purin-2-ylamino)isoindolin-2-yl]piperidine-2,6-dione] | 0.559 | – | – | – |
| O=C1CCC(N2Cc3ccc(Nc4ncc5c(n4)COC5)cc3C2=O)C(=O)N1 (centres unmarked) [Compound C80391, 3-[6-(5,7-dihydrofuro[3,4-d]pyrimidin-2-ylamino)-1-oxo-isoindolin-2-yl]piperidine-2,6-dione] | 0.152 | 0.163 | – | – |
| O=C1CCC(N2Cc3ccc(NC(=O)c4cnc5nccn5c4)cc3C2=O)C(=O)N1 (centres unmarked) [Compound C80396, N-[2-(2,6-dioxo-3-piperidyl)-3-oxo-isoindolin-5-yl]imidazo[1,2-a]pyrimidine-6-carboxamide] | 1.38 | 2.63 | – | – |
| CC(Nc1ccc2c(c1)C(=O)N(C1CCC(=O)NC1=O)C2)C(=O)O (centres unmarked) [Compound C84970, 2-[[2-(2,6-dioxo-3-piperidyl)-3-oxo-isoindolin-5-yl]amino]propanoic acid] | 1.01 | 1.42 | – | – |
| O=C1CCC(N2Cc3ccccc3C2)C(=O)N1 (centres unmarked) [Compound C87699, 3-isoindolin-2-ylpiperidine-2,6-dione] | 4.82 | 19.6 | – | – |
| O=C1CCC(N2C(=O)c3ccccc3C2=O)C(=O)N1 (centres unmarked) [THL, Thalidomide, reference compound] | – | – | >> | – |
